{"source": "patent US20020127208A1", "about": "“Method of transplantation using chemotherapy-treated allogeneic cells that enhance immune responses without graft versus host disease” (priority 2000, published 2002)", "key": {"responder splenocytes": {"system": "responder splenocytes", "test": "Proliferative response to allo-antigen (MLR) and mitogen, thymidine incorporation", "format": "cell-based, mouse", "conditions": "prior exposure to 20 μg/ml for 24 hours, vs control", "description": "A. Fludarabine attenuates the proliferative response of spleen cells to allogeneic stimulation (MLR) or mitogenic stimulation (con A). […] Strain combinations of DBA versus BL6 and BL6 versus DBA were used in the MLR experiments. CPM is expressed as percent of non-treated control.\n4×10^6 cells/ml responder cells (either B10.BR, DBA/2, or Balb/c) were co-cultured with 2×10^6 irradiated (25 Gy) stimulator cells/ml (C57.BL6) in complete media with 10 U/ml IL-2 (Chiron Corporation, Emeryville, Calif.) and 10 ng/ml IL-7 (PeproTech Inc., Rocky Hill, N.J.) in 96 well plates. Proliferation was monitored by measuring DNA synthesis/thymidine incorporation. Cultures were pulsed with 1 uCi/well of tritiated thymidine (NEN Life Sciences, Boston, Mass.) on day 6, harvested onto filtermats using a Tomtec Harvester (Hamden, Conn.) on day 7, and read on MicroBeta TriLux counter (PerkinElmer, Inc., Gaithersburg, Md.)."}, "[1]": {"system": "lethally irradiated B10.BR (H2k) recipient mice", "test": "MHC mis-matched C57.BL6 to B10.BR transplant model: survival, GvHD (weight), donor engraftment", "format": "in vivo, mouse", "conditions": "splenocytes treated with 20 μg/ml vs control or other doses (0, 3, 10, 40 μg/ml)", "excerpt": "Lethally irradiated (11 Gy) B10.BR (H2^k) recipient mice were transplanted with 1×10^6 BL6 (H2^b) TCD-BM cells (n=40, thin line). […] Survival and weight change data are derived from 2-6 individual experiments using 5 or 10 animals per group. Kaplan-Meier survival determinations are shown in A (ticks indicate time points at which individual experiments were terminated). Trend lines representing the mean weight change (percent body weight) for each group are shown in B. Trend lines were calculated using a moving average with a periodicity of 3.\n1×10^6 TCD-BM cells and splenocytes from BL6 strains having different Thy1.1 or Thy1.2 isotypes were administered to lethally irradiated B10.BR mice. […] Donor splenocyte derived CD4+ (gray bars) and CD8+ (black bars) were quantified in the peripheral blood of recipient mice 2-4 months post-transplant.\nB10.BR recipients were lethally irradiated and transplanted with 1×10^6 TCD-BM from CD45.1+ C57.BL6 donors. […] The fraction of blood T-cells derived from recipient, donor BM, and donor spleen were determined at day +27 post-transplant, using markers for T-cells (CD3), recipient-type cells (H2^k), donor-type cells (H2^b), and CD45.1/CD45.2 isoforms.\nRecipient mice were irradiated 1 day prior to transplant using a ^137CS source at a rate of 1.24 Gy/min. […] The mice were monitored daily for survival; moribund animals were euthanized. […]"}, "MCMV [2]": {"system": "MCMV", "test": "Adoptive immunotherapy against MCMV lethality, 10x10^6 lymphocytes, B/6 to F1 BMT", "format": "in vivo, mouse", "conditions": "day +120 post-BMT, MCMV infected; for % survival, immune splenocytes / Survivors/Total, immune splenocytes: 10×10^6 MCMV-immune lymphocytes; for % survival, naive splenocytes / Survivors/Total, naive splenocytes: 10×10^6 naive lymphocytes", "description": "Spleens were removed from either untreated PepBoy mice (naive donors), or those that had been inoculated with 10^5-10^6 PFU MCMV 2-4 months earlier (immune donors).\nTo generate irradiated splenocytes for adoptive immunotherapy, cells were harvested after 24 hour culture and exposed to a single fraction of radiation from a ^137Cs source for a total of 7.5 Gy. S-59 psoralen (Cerus Corporation, Concord, Calif.) was added to some splenocytes cultures at the end of the 24 hour culture period at a final concentration of 2 nM. The cells in a T75 tissue culture flask were then placed on a UVA (320-400 nm) illumination device with a nominal fluorescence of 7 mW (Cole Parmer, Vernon Hill, Ill.) and illuminated for 5 mins to achieve 3.0 J/cm^2 equivalent UVA dose. Control (untreated) splenocytes were harvested after 24 hour culture without other interventions. For all four groups, lymphocytes were washed at the end of the culture/treatment period and the appropriate dosage of viable cells was used for adoptive immunotherapy.\nOne day prior to transplant, recipient F1 mice were conditioned using a ^137Cs source at a dose rate of 1.24 Gy/min. Two doses of 5.5 Gy were administered, 3 hours apart, for a total lethal dose of 11 Gy. Irradiated mice were given free access to drinking water containing oral antibiotics (1.1 mg/ml neomycin sulfate and 1000 U/ml polymyxin sulfate; Sigma, St. Louis, Mo.) starting 3 days prior to irradiation and continuing through the end of the experimental period. 5×10^6 T-cell depleted (TCD) BM cells in a total volume of 0.2 ml HBSS/FBS were injected into the tail vein of F1 mice on the day following irradiation. In adoptive immunotherapy experiments, the appropriate number of donor splenocytes were mixed with TCD BM cells and injected simultaneously in 0.2 ml total volume. Two hours after BMT, mice were injected intraperitoneally with appropriate MCMV inocula diluted in DMEM/CS. Control (uninfected) mice received DMEM/CS alone. Mice were evaluated daily for morbidity and mortality. The development of clinical GvHD was prospectively monitored by weighing mice twice weekly, as well as observing for alopecia and/or ruffled fur, diarrhea, and decreased activity with a “hunched over” appearance. Moribund mice were euthanized based on Emory IACUC end-points and protocols.\nLymphocytes were prepared from the spleens of naïve or MCMV-immune B/6 donors and 10×10^6 or 30×10^6 were infused IV at the time of B/6→F1 allogeneic BMT. […] Some groups of mice were subsequently infected with 2×10^4 PFU MCMV at two hours after BMT, a viral inoculum expected to produce 90-100% lethality (FIG. 8B).\nTable 2: Effect of adoptive immunotherapy on the survival of B/6→F1 BMT mice following MCMV infection. At the time of BMT, mice were infused with 10×10^6 splenic lymphocytes from B/6 mice that were either previously-infected with MCMV (“Immune splenocytes”) or uninfected (“Naive splenocytes”). […] Some mice received lymphocytes that were untreated. The table lists the number of surviving mice (at day +120 post-BMT) and the total number of mice in each group, as well as the percentage survival."}, "MCMV [3]": {"system": "MCMV", "test": "Adoptive immunotherapy against MCMV lethality, 30x10^6 MCMV-immune lymphocytes, B/6 to F1 BMT", "format": "in vivo, mouse", "conditions": "30×10^6 immune lymphocytes; 2×10^4 PFU MCMV; P<0.001", "excerpt": "Spleens were removed from either untreated PepBoy mice (naive donors), or those that had been inoculated with 10^5-10^6 PFU MCMV 2-4 months earlier (immune donors). Polyclonal splenocytes were harvested by perfusing spleens with sterile HBSS/FBS. […]"}, "splenocytes": {"system": "splenocytes", "test": "Splenocyte viability in 24 hour culture", "quoted_text": "Splenocytes were harvested by perfusing spleens with sterile HBSS/FBS, and washed before culture. Splenocytes (10×10^6 cells/ml) were incubated in complete media (RPMI supplemented with 10% heat-inactivated FBS, 50 μM 2-mercaptoethanol, 100 Units/ml penicillin, 100 ug/ml streptomycin, 292 μg/ml L-glutamine, 1 mM sodium pyruvate, and non-essential amino acids added according to the manufacturer's specifications (Biowhittaker, Walkersville, Md.)). […] Overall viability was assessed by counting ethidium bromide/acridine orange stained cells under fluorescence microscopy. Survival of T-cell populations was determined by flow cytometric analyses using fluorochrome conjugated antibodies against mouse CD3, CD4 and CD8. Propidium iodide stain was used to exclude dead cells from the analysis.\nThe data represent the mean ±SEM for 4 individual experiments."}, "alloreactive T-cells": {"system": "alloreactive T-cells", "test": "Limiting dilution assay of alloreactive cell frequency", "conditions": "20 μg/ml, B10.BR responders stimulated with C57.BL6", "quoted_text": "Limiting dilution assay of B10.BR responder cells stimulated with C57.BL6.\nThe frequency of alloreactive cells was measured using a limiting dilution assay . Briefly, 20,000 responder cells were three-fold serially diluted in 96-well plates with 12 replicate wells per dilution. 10,000 stimulator cells were added to each well in a combined total volume of 150 μl complete media. After 7 days in co-culture, the proliferation of responder cells was measured using tritiated thymidine incorporation. The number of responder cells was plotted versus the natural logarithm of the percentage of negative wells (i.e., wells with cpm readings lesser than media control). The reciprocal of the slope of the regression line yielded the frequency of alloreactive T-cells."}, "B/6 to F1 BMT mice": {"system": "B/6 to F1 BMT mice", "test": "Lethality (GvHD) of 30x10^6 transferred lymphocytes without MCMV infection", "format": "in vivo, mouse", "conditions": "30×10^6 lymphocytes; n=20", "description": "FIGS. 9A-C. Adoptive immunotherapy to prevent MCMV lethality. Conditioned F1 recipients were infused with 5×10^6 TCD BM cells from B/6 donors. Some groups also received simultaneous infusions of 30×10^6 unselected splenocytes from B/6 donors previously infected with MCMV (immune). […] Following transplantation, mice were either infected with 2×10^4 PFU MCMV (A), or vehicle (B). Data from two separate experiments (n=20 mice per group) were combined for display and analysis. […] Survival was not improved when mice were infused with cultured (untreated) splenocytes (P>0.05). […]\nTo generate irradiated splenocytes for adoptive immunotherapy, cells were harvested after 24 hour culture and exposed to a single fraction of radiation from a ^137Cs source for a total of 7.5 Gy. […] The cells in a T75 tissue culture flask were then placed on a UVA (320-400 nm) illumination device with a nominal fluorescence of 7 mW (Cole Parmer, Vernon Hill, Ill.) and illuminated for 5 mins to achieve 3.0 J/cm^2 equivalent UVA dose. […]\nOne day prior to transplant, recipient F1 mice were conditioned using a ^137Cs source at a dose rate of 1.24 Gy/min. […] Mice were evaluated daily for morbidity and mortality. The development of clinical GvHD was prospectively monitored by weighing mice twice weekly, as well as observing for alopecia and/or ruffled fur, diarrhea, and decreased activity with a “hunched over” appearance. […]"}, "[4]": {"system": "liver of B/6 to F1 BMT mice", "test": "Histologic assessment of hepatic inflammation (GvHD) and MCMV inclusions", "format": "in vivo, mouse", "conditions": "day +14", "description": "FIGS. 11A-H. S-59/UVA-treated lymphocytes decrease hepatic MCMV infection without producing GvHD. […] Some mice were infected with 5×10^4 PFU MCMV (B, D, F, G), while others were uninfected (A, C, E). At day +14, livers were harvested from surviving mice and prepared for histologic examination. […] Numerous typical cytomegalic inclusions can be appreciated in a higher power photomicrograph (G). […] In contrast, mice infused with S-59/UVA lymphocytes had normal-appearing hepatic architecture with minimal detectable inflammation whether they were infected (F) or not (E).\nMice were euthanized, and segments of liver were immersion-fixed in 10% formalin, embedded in paraffin, cut in 8 μm sections, and stained with hematoxylin and eosin. […] Typical eosinophilic intranuclear cytomegalic inclusion bodies were counted in 10 contiguous high-power fields (hpf) on each section as a marker of viral replication. […] The results were decoded, tabulated, and analyzed by another co-author (J.R.).\nA sample of liver was also prepared for microscopic quantitation of MCMV-infected cells and hepatic inflammation. A trained anatomic pathologist (D.J.), blinded to sample identity, scored the sections for MCMV inclusions and hepatic portal inflammation. Representative photomicrographs are shown in FIGS. 11(A-G) and quantitative data analysis in FIG. 11H. […]"}, "[5]": {"conditions": "20 μg/ml fludarabine, 24 hour culture, % compared to starting cell no., mean ± SEM, 4 experiments"}}}
{"compound": "9-beta-D-arabinosyl-2-fluoroadenine [Fludarabine]", "values": [{"measurement": "Decrease of proliferative response to concanavalin A", "setting": "responder splenocytes; 10 μg/ml con A", "result": 37, "unit": "%"}, {"measurement": "Reduction of thymidine incorporation after stimulation with allogeneic antigen (MLR)", "setting": "responder splenocytes; 7-day MLR", "result": 62, "unit": "%"}, {"measurement": "40 day survival rate, pilot allogeneic transplant experiments", "setting": "[1]", "result": "most favorable"}, {"measurement": "% survival, immune splenocytes", "setting": "MCMV [2]", "result": 71, "unit": "%"}, {"measurement": "Survivors/Total, immune splenocytes", "setting": "MCMV [2]", "result": "24/34"}, {"measurement": "% survival, naive splenocytes", "setting": "MCMV [2]", "result": 23, "unit": "%"}, {"measurement": "Survivors/Total, naive splenocytes", "setting": "MCMV [2]", "result": "8/35"}, {"measurement": "Survival compared to mice that did not receive adoptive immunotherapy", "setting": "MCMV [3]", "result": "significantly improved survival"}, {"measurement": "Splenocyte viability, CD4+ T-cells", "setting": "splenocytes; [5]", "result": "69.0 ± 9.9", "unit": "%"}, {"measurement": "Splenocyte viability, CD8+ T-cells", "setting": "splenocytes; [5]", "result": "62.1 ± 12.9", "unit": "%"}, {"measurement": "Splenocyte viability, all leukocytes", "setting": "splenocytes; [5]", "result": "41.6 ± 7.8", "unit": "%"}, {"measurement": "Splenocyte viability, non T-cells", "setting": "splenocytes; [5]", "result": "33.6 ± 6.4", "unit": "%"}, {"measurement": "Splenocyte viability, all leukocytes", "setting": "splenocytes; 20 μg/ml fludarabine, 24 hour culture, % compared to starting cell no., mean ± SEM, 4 experiments, listed as fludarabine", "result": "approximately 42%"}, {"measurement": "T-cell viability after fludarabine culture", "setting": "splenocytes; 20 μg/ml, 24 hr", "result": "60-70%"}, {"measurement": "Viability of predominantly CD8+ cultured CTL's", "setting": "splenocytes; activated, allo-stimulated CTL's, in contrast to naive spleen cells", "result": "not affected"}, {"measurement": "Decrease in the frequency of allo-reactive T-cells", "setting": "alloreactive T-cells", "result": 66, "unit": "%"}, {"measurement": "Frequency of alloreactive cells in fludarabine treated culture", "setting": "alloreactive T-cells; untreated culture 1/205", "result": "1/621"}]}
{"compound": "Cc1oc2c(C)c3oc(=O)cc(C)c3cc2c1COCCN", "note": "[S-59]", "values": [{"measurement": "% survival, immune splenocytes", "setting": "MCMV [2]", "result": 90, "unit": "%"}, {"measurement": "Survivors/Total, immune splenocytes", "setting": "MCMV [2]", "result": "9/10"}, {"measurement": "% survival, naive splenocytes", "setting": "MCMV [2]", "result": 30, "unit": "%"}, {"measurement": "Survivors/Total, naive splenocytes", "setting": "MCMV [2]", "result": "3/10"}, {"measurement": "Survival compared to mice that did not receive adoptive immunotherapy", "setting": "MCMV [3]", "result": "significantly improved survival"}, {"measurement": "Mice that died without MCMV infection", "setting": "B/6 to F1 BMT mice", "result": "none"}, {"measurement": "Portal inflammation score (scale 1-5)", "setting": "[4]; MCMV infected", "result": 3.0}, {"measurement": "Portal inflammation score (scale 1-5)", "setting": "[4]; not MCMV infected", "result": 2.3}]}
